Measured values taken from article PMC5333395, “Assessing histone demethylase inhibitors in cells: lessons learned” (Epigenetics & Chromatin, 2017).
Where two headings read alike, the source gives them in different places. Blank lines part the entries; values can stand above or below the compound they belong to.

Tests used:
HeLa cells [1] = experiment: Hoechst 33342/Yo-Pro 3/Annexin triple staining, live cell death pattern analysis; format: cell-based
Experimental: Cells exposed to the inhibitors for 24 h were stained with Hoechst 33342 (1 µM), Yo-Pro 3 (1 µM) and Annexin V (0.3 μL per well) for 1 h. Cellular fluorescence was measured using the IN Cell 6000 (GE) using the following set-up parameters: bright-field transmitted light at 50% for 15 ms; Hoechst 33342 was excited by 35-ms exposure(Ex 360–400 nm/Em 410–480 nm), Yo-Pro 3 by 35-ms exposure(Ex 560–580 nm/Em 650–760 nm) and Annexin V (Alexa 488) by 45-ms exposure(Ex 460–490 nm/Em 500–550 nm). All the generated data were analysed using the IN Cell Analyser software, and three categories were distinguished: healthy cells, apoptosis and necrosis—calculated as percentage of each class for every concentration used.

HeLa cells [2] = experiment: Cell number in the high-content screen (DAPI staining) as measure of toxicity; conditions: concentrations used in the IF assays
Text: (§2) Immunofluorescence images of 20 fields (if not indicated otherwise) were captured through a 20× objective on a PerkinElmer Operetta or the GE IN Cell 6000 using the appropriate filters and light sources for exciting DAPI, Alexafluor 488, and Alexafluor 568 or Alexafluor 647. […] From the DAPI channel, a binary mask was created to exclude individual nuclei smaller than 100 µm^2 and those overlapping the edge of the field.

KDM3A = molecular target: T1, KDM3A (Homo sapiens, UniProt Q9Y4C1); experiment: AlphaScreen in vitro demethylase assay; format: biochemical; conditions: IC50 ± SD (number of replicates)
T1 sequence (Q9Y4C1 1-1321): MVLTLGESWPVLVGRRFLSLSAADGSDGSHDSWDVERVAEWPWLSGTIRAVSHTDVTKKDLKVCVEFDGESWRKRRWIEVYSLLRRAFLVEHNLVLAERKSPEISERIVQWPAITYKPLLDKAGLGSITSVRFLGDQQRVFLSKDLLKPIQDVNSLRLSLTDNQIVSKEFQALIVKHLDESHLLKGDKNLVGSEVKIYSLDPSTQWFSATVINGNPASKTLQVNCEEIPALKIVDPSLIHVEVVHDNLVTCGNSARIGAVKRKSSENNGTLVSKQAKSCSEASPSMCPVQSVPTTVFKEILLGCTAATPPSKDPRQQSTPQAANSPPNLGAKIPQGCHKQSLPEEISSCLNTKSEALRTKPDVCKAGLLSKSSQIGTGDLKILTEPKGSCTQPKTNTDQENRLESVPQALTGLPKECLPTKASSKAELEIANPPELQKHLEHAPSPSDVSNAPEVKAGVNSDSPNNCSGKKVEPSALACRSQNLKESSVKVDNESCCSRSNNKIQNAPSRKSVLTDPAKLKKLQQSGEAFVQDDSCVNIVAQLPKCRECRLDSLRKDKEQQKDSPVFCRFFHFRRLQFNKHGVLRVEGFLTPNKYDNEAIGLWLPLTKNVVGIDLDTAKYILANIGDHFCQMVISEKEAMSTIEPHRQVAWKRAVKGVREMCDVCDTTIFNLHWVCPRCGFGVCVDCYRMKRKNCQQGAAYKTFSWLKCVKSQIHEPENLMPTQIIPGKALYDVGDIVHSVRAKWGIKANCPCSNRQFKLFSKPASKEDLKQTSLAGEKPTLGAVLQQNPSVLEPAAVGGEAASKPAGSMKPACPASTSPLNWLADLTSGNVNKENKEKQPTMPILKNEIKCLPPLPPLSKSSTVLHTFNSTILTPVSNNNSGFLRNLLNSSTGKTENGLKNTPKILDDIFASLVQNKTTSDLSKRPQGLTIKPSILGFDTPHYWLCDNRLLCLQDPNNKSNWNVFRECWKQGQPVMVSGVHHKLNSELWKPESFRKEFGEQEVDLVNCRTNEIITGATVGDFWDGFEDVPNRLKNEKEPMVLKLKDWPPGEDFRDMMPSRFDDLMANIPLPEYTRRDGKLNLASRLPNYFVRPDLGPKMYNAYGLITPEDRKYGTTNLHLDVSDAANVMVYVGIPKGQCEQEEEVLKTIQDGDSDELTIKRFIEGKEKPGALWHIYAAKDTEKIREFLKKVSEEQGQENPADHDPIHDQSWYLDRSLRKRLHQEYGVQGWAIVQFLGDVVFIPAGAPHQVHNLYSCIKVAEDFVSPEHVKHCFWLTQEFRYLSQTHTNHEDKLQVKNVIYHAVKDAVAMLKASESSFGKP
Experimental: (§1) IC50 values were determined as previously described. The following amendments were made to the protocol for carrying out 2-OG competition assays.

KDM5C = KDM5C (Homo sapiens, UniProt P41229); experiment: AlphaScreen in vitro demethylase assay; format: biochemical; conditions: IC50 ± SD (number of replicates)
Experimental: as §1

KDM5B [3] = molecular target: T2, KDM5B (Homo sapiens, UniProt Q9UGL1); experiment: AlphaScreen in vitro demethylase assay; format: biochemical
Experimental: as §1

KDM5B [4] = molecular target: T2, KDM5B; experiment: High-content immunofluorescence (IF) assay, overexpressed full-length FLAG-tagged KDM in HeLa cells; format: cell-based; design: transiently transfecting the full-length FLAG-tagged demethylase (WT) into cells; expressed in transfected cells; host or cells: HeLa; conditions: for EC50: HeLa cells overexpressing WT KDM5B, H3K4me3 mark, 24 h, read-out: KDM5B, in cells, EC50 by IF assay (head: IC50); for Effect on H3K4me3 mark in KDM5B IF assay, in words: HeLa cells transfected with KDM5B
Experimental: HeLa cells (ATCC) were cultured at 37 °C and 5% CO2 in Minimal Essential Media—Eagle (Sigma-Aldrich, UK) supplemented with 10% heat-inactivated foetal calf serum (FCS) (Gibco, UK), and 1% L-glutaMAX (Gibco, UK) in T75 flasks (Sarstedt, UK) and passaged regularly with TrypLE (Life Technologies, UK) before cells reached confluence. On day 0, 7000 cells per well were plated on a 96-well clear bottom CellCarrier plate (PerkinElmer, UK). The next day the cells were transfected with Lipofectamine 3000 (ThermoFisher Scientific, UK) following the manufacturer’s instructions. Briefly, 0.1 µg of plasmid DNA (encoding for the respective demethylase) and 0.15 µL of Lipofectamine 3000 were diluted in separate tubes containing 5 µL OptiMEM. 0.15 µL of P3000 was added to the tube with the DNA. The two solutions were then mixed gently and allowed to incubate for 5 min at room temperature. Next, the DNA-lipid complex was added to the cells for 4 h at 37 °C and 5% CO2.
Compound dilutions were made in a 96-well PCR plate (Starlab, UK). The culture medium was supplemented with 0.4% DMSO so that the solvent concentration was maintained throughout. Compounds were serially diluted at a 1:2 or 1:3 dilution ratio. Next, the cell culture plate was removed from the incubator and the medium was gently aspirated and replaced with the fresh medium containing diluted compounds.
Then cells were rinsed once with PBS and blocked for 30 min at room temperature using 3% v/v foetal calf serum diluted in PBS.

HeLa cells [5] = system: HeLa cells
Text: as §2

H3K27me3 mark = experiment: IF assay of histone mark in HeLa cells treated with cytotoxic agents
H3K9me2 mark = experiment: as above
KDM6B = KDM6B (Homo sapiens, UniProt O15054); experiment: AlphaScreen in vitro demethylase assay; format: biochemical; conditions: in vitro KDM assay, Table S3; * likely false positive due to colour quenching; read-out: KDM6B IC50
Experimental: as §1

KDM4C = molecular target: T3, KDM4C (Homo sapiens, UniProt Q9H3R0); experiment: AlphaScreen in vitro demethylase assay; format: biochemical; conditions: in vitro KDM assay, Table S3; * likely false positive due to colour quenching; read-out: KDM4C IC50
T3 sequence (Q9H3R0 1-1056): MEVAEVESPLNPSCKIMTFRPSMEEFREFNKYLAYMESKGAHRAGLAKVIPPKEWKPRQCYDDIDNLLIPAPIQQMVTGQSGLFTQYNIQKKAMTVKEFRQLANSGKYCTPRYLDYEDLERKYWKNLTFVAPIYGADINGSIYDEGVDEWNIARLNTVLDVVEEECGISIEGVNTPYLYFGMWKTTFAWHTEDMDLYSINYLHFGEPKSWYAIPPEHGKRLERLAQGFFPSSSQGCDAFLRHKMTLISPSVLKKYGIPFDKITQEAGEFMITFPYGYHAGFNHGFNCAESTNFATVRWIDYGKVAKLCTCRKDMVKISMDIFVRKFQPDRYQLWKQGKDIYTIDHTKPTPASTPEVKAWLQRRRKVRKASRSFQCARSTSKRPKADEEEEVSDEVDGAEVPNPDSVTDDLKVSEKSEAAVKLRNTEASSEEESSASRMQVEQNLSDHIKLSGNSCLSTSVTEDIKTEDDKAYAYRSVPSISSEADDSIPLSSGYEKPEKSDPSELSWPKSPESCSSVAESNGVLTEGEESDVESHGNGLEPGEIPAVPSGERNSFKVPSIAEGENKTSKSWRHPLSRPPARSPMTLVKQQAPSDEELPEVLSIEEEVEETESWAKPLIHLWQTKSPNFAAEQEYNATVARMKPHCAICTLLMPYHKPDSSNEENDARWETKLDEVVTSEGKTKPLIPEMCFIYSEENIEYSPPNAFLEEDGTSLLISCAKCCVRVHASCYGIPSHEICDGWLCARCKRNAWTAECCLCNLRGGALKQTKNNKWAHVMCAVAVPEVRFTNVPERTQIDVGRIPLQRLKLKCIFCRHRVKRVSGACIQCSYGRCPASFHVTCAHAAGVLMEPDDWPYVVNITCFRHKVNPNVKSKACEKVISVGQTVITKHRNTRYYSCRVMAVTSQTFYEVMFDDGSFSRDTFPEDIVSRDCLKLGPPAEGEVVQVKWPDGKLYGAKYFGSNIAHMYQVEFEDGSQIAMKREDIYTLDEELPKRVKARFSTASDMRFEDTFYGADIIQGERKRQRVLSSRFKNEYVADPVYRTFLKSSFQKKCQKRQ
Experimental: as §1

H3K4me3 mark = experiment: IF assay of histone mark in HeLa cells treated with cytotoxic agents
H3K36me2 mark = experiment: as above
KDM5B [6] = molecular target: T2, KDM5B; design: method as in PMID 26741168; conditions: AlphaScreen; in vitro biochemical profiling previously reported; cited from earlier work
[7] = in vitro KDM assay, Table S3, * likely false positive due to colour quenching, read-out: KDM5B IC50
[8] = HeLa cells, 24 h, dose-dependent

T2 sequence (Q9UGL1 whole entry): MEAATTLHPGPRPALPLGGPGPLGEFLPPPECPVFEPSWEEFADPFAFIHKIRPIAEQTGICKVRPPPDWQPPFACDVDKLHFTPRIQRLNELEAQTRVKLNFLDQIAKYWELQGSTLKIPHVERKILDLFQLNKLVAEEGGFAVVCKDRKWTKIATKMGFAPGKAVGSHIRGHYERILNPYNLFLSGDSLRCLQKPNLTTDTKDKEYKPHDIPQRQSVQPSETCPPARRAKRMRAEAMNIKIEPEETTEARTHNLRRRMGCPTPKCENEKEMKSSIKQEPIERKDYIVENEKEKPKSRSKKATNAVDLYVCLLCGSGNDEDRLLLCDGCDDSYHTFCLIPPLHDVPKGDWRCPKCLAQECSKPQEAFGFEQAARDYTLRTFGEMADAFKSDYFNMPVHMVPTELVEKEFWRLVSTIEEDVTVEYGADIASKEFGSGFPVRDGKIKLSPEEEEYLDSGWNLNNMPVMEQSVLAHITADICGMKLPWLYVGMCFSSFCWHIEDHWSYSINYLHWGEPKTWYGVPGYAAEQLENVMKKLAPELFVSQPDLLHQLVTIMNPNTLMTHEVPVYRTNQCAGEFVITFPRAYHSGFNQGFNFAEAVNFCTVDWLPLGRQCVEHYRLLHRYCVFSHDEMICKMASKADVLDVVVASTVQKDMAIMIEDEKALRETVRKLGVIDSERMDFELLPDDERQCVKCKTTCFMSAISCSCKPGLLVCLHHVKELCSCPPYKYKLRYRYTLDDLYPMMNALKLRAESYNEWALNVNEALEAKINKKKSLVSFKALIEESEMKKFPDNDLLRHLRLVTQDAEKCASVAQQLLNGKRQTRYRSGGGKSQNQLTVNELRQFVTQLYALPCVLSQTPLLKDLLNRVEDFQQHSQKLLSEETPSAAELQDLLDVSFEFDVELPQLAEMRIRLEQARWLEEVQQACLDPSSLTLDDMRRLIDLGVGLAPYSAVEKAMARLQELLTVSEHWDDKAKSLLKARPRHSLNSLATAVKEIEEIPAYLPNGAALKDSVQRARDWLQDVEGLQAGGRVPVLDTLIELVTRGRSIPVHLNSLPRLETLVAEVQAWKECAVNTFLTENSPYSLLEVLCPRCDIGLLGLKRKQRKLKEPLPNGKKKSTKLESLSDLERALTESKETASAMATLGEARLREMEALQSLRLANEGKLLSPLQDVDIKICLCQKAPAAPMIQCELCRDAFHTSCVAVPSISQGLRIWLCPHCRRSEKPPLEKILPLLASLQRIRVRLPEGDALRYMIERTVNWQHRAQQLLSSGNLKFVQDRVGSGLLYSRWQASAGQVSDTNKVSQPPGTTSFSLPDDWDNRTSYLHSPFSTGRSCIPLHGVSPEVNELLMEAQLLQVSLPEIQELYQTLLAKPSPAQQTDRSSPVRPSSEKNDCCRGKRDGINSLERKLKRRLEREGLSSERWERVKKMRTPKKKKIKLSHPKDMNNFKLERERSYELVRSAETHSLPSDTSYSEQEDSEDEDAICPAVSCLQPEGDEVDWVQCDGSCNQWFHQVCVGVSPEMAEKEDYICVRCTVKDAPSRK
Chain of KDM6B (O15054 whole entry): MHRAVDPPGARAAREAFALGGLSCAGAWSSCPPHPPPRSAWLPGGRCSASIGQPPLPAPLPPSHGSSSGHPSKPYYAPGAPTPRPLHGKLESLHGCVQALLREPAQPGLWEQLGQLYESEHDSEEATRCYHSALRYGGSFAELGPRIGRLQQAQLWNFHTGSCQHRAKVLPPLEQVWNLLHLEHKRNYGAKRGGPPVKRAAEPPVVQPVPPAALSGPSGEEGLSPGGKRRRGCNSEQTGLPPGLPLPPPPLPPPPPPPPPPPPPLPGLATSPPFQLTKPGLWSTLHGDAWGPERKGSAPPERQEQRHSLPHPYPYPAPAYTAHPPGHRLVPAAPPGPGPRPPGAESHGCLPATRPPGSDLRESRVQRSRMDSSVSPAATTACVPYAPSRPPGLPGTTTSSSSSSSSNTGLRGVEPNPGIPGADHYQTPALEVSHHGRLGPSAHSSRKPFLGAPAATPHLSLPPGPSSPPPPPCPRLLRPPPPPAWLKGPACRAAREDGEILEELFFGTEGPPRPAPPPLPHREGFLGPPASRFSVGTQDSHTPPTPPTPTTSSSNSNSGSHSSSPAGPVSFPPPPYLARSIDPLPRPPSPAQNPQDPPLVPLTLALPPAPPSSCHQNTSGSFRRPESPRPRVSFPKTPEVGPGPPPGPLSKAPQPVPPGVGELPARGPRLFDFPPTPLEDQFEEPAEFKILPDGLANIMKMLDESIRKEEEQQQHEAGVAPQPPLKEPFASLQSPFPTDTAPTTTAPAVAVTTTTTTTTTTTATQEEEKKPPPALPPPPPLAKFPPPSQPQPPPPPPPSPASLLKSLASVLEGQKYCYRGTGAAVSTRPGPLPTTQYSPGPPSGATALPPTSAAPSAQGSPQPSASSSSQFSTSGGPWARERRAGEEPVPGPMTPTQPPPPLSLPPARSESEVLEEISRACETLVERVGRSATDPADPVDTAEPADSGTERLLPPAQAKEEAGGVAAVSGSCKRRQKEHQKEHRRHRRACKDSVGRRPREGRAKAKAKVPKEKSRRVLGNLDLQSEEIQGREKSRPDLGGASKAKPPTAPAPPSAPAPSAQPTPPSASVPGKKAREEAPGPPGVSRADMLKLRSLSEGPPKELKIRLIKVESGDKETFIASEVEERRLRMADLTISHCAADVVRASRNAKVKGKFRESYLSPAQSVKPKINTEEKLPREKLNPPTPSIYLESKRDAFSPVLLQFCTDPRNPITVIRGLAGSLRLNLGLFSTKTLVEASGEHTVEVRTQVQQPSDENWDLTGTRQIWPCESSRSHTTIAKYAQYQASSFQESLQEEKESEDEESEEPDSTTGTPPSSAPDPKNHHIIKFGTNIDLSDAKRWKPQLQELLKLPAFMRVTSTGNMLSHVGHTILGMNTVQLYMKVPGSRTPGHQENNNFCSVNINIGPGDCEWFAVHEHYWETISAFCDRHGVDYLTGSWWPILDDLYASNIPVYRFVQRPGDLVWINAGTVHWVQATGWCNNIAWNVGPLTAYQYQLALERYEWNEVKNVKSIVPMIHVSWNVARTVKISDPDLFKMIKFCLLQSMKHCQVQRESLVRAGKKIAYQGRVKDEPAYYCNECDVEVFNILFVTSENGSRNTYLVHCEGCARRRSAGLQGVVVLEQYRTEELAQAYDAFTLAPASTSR
Chain of KDM5C (P41229 whole entry): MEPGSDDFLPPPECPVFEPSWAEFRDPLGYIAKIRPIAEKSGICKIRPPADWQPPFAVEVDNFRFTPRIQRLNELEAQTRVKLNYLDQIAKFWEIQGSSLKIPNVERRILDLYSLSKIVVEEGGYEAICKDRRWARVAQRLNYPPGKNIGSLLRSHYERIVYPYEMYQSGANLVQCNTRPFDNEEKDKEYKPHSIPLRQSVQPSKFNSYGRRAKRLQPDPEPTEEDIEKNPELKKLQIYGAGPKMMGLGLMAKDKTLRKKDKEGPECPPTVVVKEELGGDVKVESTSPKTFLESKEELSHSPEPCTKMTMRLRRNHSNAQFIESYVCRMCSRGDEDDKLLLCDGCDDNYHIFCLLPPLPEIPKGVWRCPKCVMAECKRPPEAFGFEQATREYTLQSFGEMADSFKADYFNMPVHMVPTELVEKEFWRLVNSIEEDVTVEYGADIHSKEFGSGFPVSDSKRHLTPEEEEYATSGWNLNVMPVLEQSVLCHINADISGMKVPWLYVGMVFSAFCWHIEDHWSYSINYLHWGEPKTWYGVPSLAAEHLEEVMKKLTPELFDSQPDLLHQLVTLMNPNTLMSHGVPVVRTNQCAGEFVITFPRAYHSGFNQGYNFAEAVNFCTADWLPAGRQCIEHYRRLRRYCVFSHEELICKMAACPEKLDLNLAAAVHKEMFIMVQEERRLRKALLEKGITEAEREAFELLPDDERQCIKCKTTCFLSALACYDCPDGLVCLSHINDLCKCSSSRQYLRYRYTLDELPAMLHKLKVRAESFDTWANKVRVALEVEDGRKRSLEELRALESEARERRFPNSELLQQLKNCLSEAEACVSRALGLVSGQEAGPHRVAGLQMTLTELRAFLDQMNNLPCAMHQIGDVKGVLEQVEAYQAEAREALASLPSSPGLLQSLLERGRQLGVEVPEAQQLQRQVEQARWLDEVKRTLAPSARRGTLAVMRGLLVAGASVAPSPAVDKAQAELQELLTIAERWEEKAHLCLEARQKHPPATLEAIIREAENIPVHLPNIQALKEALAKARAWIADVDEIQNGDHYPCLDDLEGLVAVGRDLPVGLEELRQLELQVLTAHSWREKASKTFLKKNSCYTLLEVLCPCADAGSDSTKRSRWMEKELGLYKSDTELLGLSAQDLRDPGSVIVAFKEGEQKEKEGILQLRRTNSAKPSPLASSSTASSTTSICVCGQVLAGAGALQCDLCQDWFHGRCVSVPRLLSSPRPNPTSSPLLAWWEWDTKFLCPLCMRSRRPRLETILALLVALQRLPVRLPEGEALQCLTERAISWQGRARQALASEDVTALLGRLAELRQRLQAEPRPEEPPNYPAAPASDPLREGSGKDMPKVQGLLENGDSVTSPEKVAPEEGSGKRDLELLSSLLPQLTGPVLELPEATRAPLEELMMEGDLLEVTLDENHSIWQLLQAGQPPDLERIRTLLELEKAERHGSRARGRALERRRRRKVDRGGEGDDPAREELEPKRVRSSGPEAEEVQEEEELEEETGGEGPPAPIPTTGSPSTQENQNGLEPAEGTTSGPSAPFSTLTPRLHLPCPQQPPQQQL

Compound: CCOC(=O)CCNc1cc(N2CCc3ccccc3CC2)nc(-c2cccnc2)n1 [GSK-J5]
necrotic cells (HeLa cells [1]; HeLa cells, 50 µM): about 60%
Toxicity as measured by cell count (number of cells, DAPI staining) (HeLa cells [2]): only minor toxicity at the highest concentrations used

IC50 (KDM3A): > 10 µM
IC50 (KDM5C): > 10 µM
IC50 (KDM5B [3]; AlphaScreen, IC50 ± SD (number of replicates), read-out: KDM5B IC50, in vitro): 7.01 µM
EC50 (KDM5B [4]): > 100 µM
Compound: Clc1ccc(N/N=C(/c2ccccc2)c2ccccn2)nc1 [JIB-04 Z]

Effect on H3K4me3 mark in KDM5B IF assay, in words (KDM5B [4]): increase of the H3K4me3 mark
Compound: CCOC(=O)CCNc1cc(N2CCc3ccccc3CC2)nc(-c2ccccn2)n1 [GSK-J4]
Toxicity as measured by cell count (number of cells, DAPI staining) (HeLa cells [5]): only minor toxicity at the highest concentrations used

IC50 (KDM6B): > 100 µM
IC50 (KDM5B [3]; [7]): > 100 µM
IC50 (KDM4C): > 100 µM
Compound: CC(=O)O[C@H]1C(=O)[C@@]2(C)[C@H]([C@H](OC(=O)c3ccccc3)[C@]3(O)C[C@H](OC(=O)[C@H](O)[C@@H](NC(=O)c4ccccc4)c4ccccc4)C(C)=C1C3(C)C)[C@]1(OC(C)=O)CO[C@@H]1C[C@@H]2O [Paclitaxel, paclitaxel]
Effect on H3K27me3 mark, in words (H3K27me3 mark): profound effect
Cell death in triple staining (healthy, apoptotic, necrotic), in words (HeLa cells [1]): predominant apoptotic staining
Effect on H3K9me2 levels, in words (H3K9me2 mark): not affected
Effect on H3K4me3 levels, in words (H3K4me3 mark): dose-dependent increase of H3K4me3
Effect on H3K36me2 levels, in words (H3K36me2 mark): only marginally affected
Toxicity as measured by cell count (number of cells, DAPI staining) (HeLa cells [2]): induced cell death

Compound: O=C(O)c1ccc(O)c2ncccc12 [IOX1]
Cell death in triple staining (healthy, apoptotic, necrotic), in words (HeLa cells [1]; [8]): little to no cell toxicity
IC50 (KDM5B [6]): 20.6 ± 9 µM
EC50 (KDM5B [4]): 62 µM
Effect on H3K4me3 mark in KDM5B IF assay, in words (KDM5B [4]): dose-dependent increase of H3K4me3
Toxicity as measured by cell count (number of cells, DAPI staining) (HeLa cells [2]): only observed cell toxicity at high concentrations

Compound: COc1cccc2c1C(=O)c1c(O)c3c(c(O)c1C2=O)C[C@@](O)(C(=O)CO)C[C@@H]3O[C@H]1C[C@H](N)[C@H](O)[C@H](C)O1 [Doxorubicin, doxorubicin]
Effect on H3K27me3 mark, in words (H3K27me3 mark): profound effect
Cell death in triple staining (healthy, apoptotic, necrotic), in words (HeLa cells [1]): predominant apoptotic staining
Effect on H3K9me2 levels, in words (H3K9me2 mark): some increase
Effect on H3K4me3 levels, in words (H3K4me3 mark): no effect on this mark
Effect on H3K36me2 levels, in words (H3K36me2 mark): only marginally affected
Toxicity as measured by cell count (number of cells, DAPI staining) (HeLa cells [2]): induced cell death

Compound: CN[C@@H]1C[C@H]2O[C@@](C)([C@@H]1OC)n1c3ccccc3c3c4c(c5c6ccccc6n2c5c31)C(=O)NC4 [Staurosporine, staurosporine]
Cell death in triple staining (healthy, apoptotic, necrotic), in words (HeLa cells [1]; [8]): predominant apoptotic staining
IC50 (KDM6B): > 100 µM
IC50 (KDM5B [3]; [7]): > 100 µM
IC50 (KDM4C): > 100 µM
